Data reported in ChEMBL document CHEMBL1828586 (J Med Chem, 2011).

Assays:
[1] = Cmax in Sprague-Dawley rat at […], iv by LC-MS/MS analysis; assay type: ADME, organism-based; design: dose 2.5 mg/kg, route intravenous; settings: in vivo
[2] = Anticancer activity against mouse B16-F1 cells after 96 hrs by SRB assay; assay type: functional, cell-based; settings: B16-F1, 96 h
[3] = AUC in Sprague-Dawley rat at 4 mg/kg, po by LC-MS/MS analysis; assay type: ADME, organism-based; design: dose 4 mg/kg, route oral; settings: plasma
A-375 = test: Anticancer activity against human A375 cells after 96 hrs by SRB assay; assay type: functional, cell-based; settings: A-375, 96 h
NCI/ADR-RES = test: Anticancer activity against P-gp overexpressing human NCI/ADR-RES cells after 96 hrs by SRB assay; assay type: functional, cell-based
[4] = Aqueous solubility of the compound in PBS at 35 ug/ml and pH 7.4 by LC/MS/MS analysis; assay type: physicochemical; settings: buffer
PPC-1 = test: Anticancer activity against human PPC1 cells after 96 hrs by SRB assay; assay type: functional, cell-based; settings: PPC-1, 96 h
[5] = Cmax in Sprague-Dawley rat at 4 mg/kg, po by LC-MS/MS analysis; assay type: ADME, organism-based; design: dose 4 mg/kg, route oral; settings: in vivo
PC-3 = test: Anticancer activity against human PC3 cells after 96 hrs by SRB assay; assay type: functional, cell-based; settings: PC-3, 96 h
LNCaP = test: Anticancer activity against human LNCAP cells after 96 hrs by SRB assay; assay type: functional, cell-based
Rattus norvegicus = test: Oral bioavailability in Sprague-Dawley rat at 4 mg/kg by LC-MS/MS analysis; assay type: ADME, organism-based; settings: in vivo
OVCAR-8 = test: Anticancer activity against human OVCAR8 cells after 96 hrs by SRB assay; assay type: functional, cell-based; settings: OVCAR-8, 96 h
[6] = AUC in Sprague-Dawley rat at […], iv by LC-MS/MS analysis; assay type: ADME, organism-based; design: dose 2.5 mg/kg, route intravenous; settings: plasma

Work on `COc1cc(C(=O)c2csc(-c3ccc(CN)cc3)n2)cc(OC)c1OC.Cl` yielded a Cmax [1] of 3790 ng/mL, an IC50 [2] of 38 nM and an AUC [3] of 6.67 ng·h/mL. For the same compound, the IC50 (A-375) was 41 nM, the IC50 (NCI/ADR-RES) was 11 nM and the solubility [4] was “soluble”. For the same compound, the IC50 (PPC-1) was 34 nM, the Cmax [5] was 3.2 ng/mL and the IC50 (PC-3) was 80 nM. For the same compound, the IC50 (LNCaP) was 13 nM, the F (Rattus norvegicus) was 0.2% and the IC50 (OVCAR-8) was 26 nM. The AUC [6] was 2320 ng·h/mL.
